Source: patent US9017681B2, “Adenylyl cyclases as novel targets for antibactrial interventions” (Cornell Research Foundation, Inc., priority 2007, dated 2015)
“Also recorded” adds a separate entry of the source. Like-named read-outs stand apart in the source and are kept apart here.

What was measured:
human sAC [1] = target: T1, human sAC (Homo sapiens, UniProt Q96PN6); assay: in vitro adenylyl cyclase assay with purified human sAC protein (cAMP by Correlate-EIA); assay type: biochemical; settings: for inhibition at 100 µM: 100 μM of compound
T1 construct: made in house
T1 sequence (Q96PN6 1-469 limits assumed): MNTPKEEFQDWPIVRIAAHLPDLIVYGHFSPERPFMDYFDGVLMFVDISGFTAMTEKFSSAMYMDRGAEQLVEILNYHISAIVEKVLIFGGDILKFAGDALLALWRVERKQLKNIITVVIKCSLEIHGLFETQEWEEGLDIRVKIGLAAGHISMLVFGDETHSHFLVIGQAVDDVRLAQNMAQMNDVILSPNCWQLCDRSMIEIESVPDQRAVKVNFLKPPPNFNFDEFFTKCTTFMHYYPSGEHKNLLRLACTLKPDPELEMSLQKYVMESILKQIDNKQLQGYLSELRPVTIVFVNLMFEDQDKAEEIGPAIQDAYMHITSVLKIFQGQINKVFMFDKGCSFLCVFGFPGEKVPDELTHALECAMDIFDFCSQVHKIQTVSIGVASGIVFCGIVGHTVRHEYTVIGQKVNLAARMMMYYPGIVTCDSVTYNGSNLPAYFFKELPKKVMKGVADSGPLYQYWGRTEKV
Description: Purified human sAC protein was used in an in vitro adenylyl cyclase assay. Purification of the protein is described in detail in Litvin et al. 2003. (J. Biol. Chem. 278:15922-15926). This paper also describes the general conditions for a sAC cyclase assay. The specific conditions for the in vitro assay are as follows.
For basal sAC activity, an assay master mixture with sufficient volume for all reactions was prepared containing:
100 U/ml creatine phosphokinase (CPK)
An aliquot of the master mixture was added to the purified human sAC. The assay mixture also included the indicated concentration of KH compound, or an equivalent volume of vehicle (i.e., DMSO) as control. The reaction was started by adding 5 mM ATP (total assay volume=100 μL). The reaction mixture was incubated at 30° C. for 30 minutes and then stopped by adding 100 μl […]. Stimulated assay conditions involve adding 40 mM bicarbonate and 5 mM CaCl2 to the above master mixture.
(§1) Cyclic AMP levels were measured in each sample using the Correlate-EIA Direct Cyclic AMP assay kit from Assay Designs as per manufacturers instructions.

human sAC [2] = target: T1, human sAC; assay: cellular cAMP accumulation assay in 4-4 cells (hsACt stably transfected into 293T), IBMX; assay type: cell-based; settings: for IC50: stable cell line overexpressing human sAC, 500 μM IBMX, read-out: 4-4, Basal approximate IC50 (or the dose range where the IC50 should lie)
Description: 293T cells or 4-4 […] stably transfected into 293T) were grown in 75 cm2 Tissue Culture Flasks until nearly confluent using DMEM (10% FBS, 1% L-Glutamine, 1% Penicillin/Streptomycin). Cells were released from the flask with 3 ml of trypsin followed by addition of 7 ml of DMEM to neutralize the trypsin. Cells were mixed by pipetting up and down with 10 ml serological pipette. To a 3 ml aliquot of the cell mixture, 6 ml of DMEM (prewarmed to 37° C.) was added followed by thorough mixing by picking up the entire 9 mls using a repeat pipettor, and slowly pipetting out against the wall of container. This was repeated this ten times to ensure the mixture in homogenous. 100 μL of cells were then added to each pre-siliconized 1.7 ml Eppindorf tubes (Costar #3207) followed by a 60 min incubation at 37° C. and 5% CO2. This incubation was performed in 20-tube, round, floating racks (VWR #60986-100), which enable a quick transfer of the samples to a water bath, and the ability to mix several samples simultaneously. Following the incubation, 1 μL of the compound in DMSO was added (or just DMSO for controls). The cells were mixed before and after adding the compound, by a brief (and light) vortexing. The compounds were added while the cells were in the 37° C. water bath, followed by a 10 min incubation at 37° C. and 5% CO2. Following this incubation, 1 μL it of IBMX or 1 μL of IBMX+Forskolin was added with Repeat Pipettor. The 4-4 cells receive the IBMX to a final concentration of 500 μM IBMX. […] Both the IBMX mix (for 4-4 cells), and the IBMX/FSK mix (for 293T cells) were 100×, and were dissolved in DMSO. Cells were mixed and incubated at 37° C. and 5% CO2 for 15 min. The assay was stopped by placing the cells in an ice bath. Cells were pelleted by centrifugation at 2000×G for 7 min at 4° C. The supernatant was aspirated and 250 μL of 0.1 N HCl was added to each cell pellet followed by through vortexing for 1 min. Following a 10 min incubation at room temperature, 30 μL of each sample was added to 70 μL of 0.1 N HCl and the cAMP levels were measured using the protocol for the Direct Cyclic AMP Kit (Assay Designs, Inc. #901-066). This 30 μL plus 70 μL of 0.1 N HCl makes up the sample described in step 5 of the Assay Designs' protocol. The samples should lie in the linear range of the assay.

[3] = tested on: endogenous transmembrane adenylyl cyclases; assay: cellular cAMP accumulation assay in 293T cells + IBMX + forskolin; assay type: cell-based, human; settings: for IC50: 293T cells, 500 μM IBMX and 10 μM forskolin, endogenous tmAC activity, read-out: 293T + FSK
Description: 293T cells or 4-4 cells (hsACt stably transfected into 293T) were grown in 75 cm2 Tissue Culture Flasks until nearly confluent using DMEM (10% FBS, 1% L-Glutamine, 1% Penicillin/Streptomycin). Cells were released from the flask with 3 ml of trypsin followed by addition of 7 ml of DMEM to neutralize the trypsin. Cells were mixed by pipetting up and down with 10 ml serological pipette. To a 3 ml aliquot of the cell mixture, 6 ml of DMEM (prewarmed to 37° C.) was added followed by thorough mixing by picking up the entire 9 mls using a repeat pipettor, and slowly pipetting out against the wall of container. This was repeated this ten times to ensure the mixture in homogenous. 100 μL of cells were then added to each pre-siliconized 1.7 ml Eppindorf tubes (Costar #3207) followed by a 60 min incubation at 37° C. and 5% CO2. This incubation was performed in 20-tube, round, floating racks (VWR #60986-100), which enable a quick transfer of the samples to a water bath, and the ability to mix several samples simultaneously. Following the incubation, 1 μL of the compound in DMSO was added (or just DMSO for controls). The cells were mixed before and after adding the compound, by a brief (and light) vortexing. The compounds were added while the cells were in the 37° C. water bath, followed by a 10 min incubation at 37° C. and 5% CO2. Following this incubation, 1 μL it of IBMX or 1 μL of IBMX+Forskolin was added with Repeat Pipettor. The 4-4 cells receive the IBMX to a final concentration of 500 μM IBMX. The 293T cells receive IBMX and Forskolin to final concentration of 500 μM IBMX and 10 μM, respectively. Both the IBMX mix (for 4-4 cells), and the IBMX/FSK mix (for 293T cells) were 100×, and were dissolved in DMSO. Cells were mixed and incubated at 37° C. and 5% CO2 for 15 min. The assay was stopped by placing the cells in an ice bath. Cells were pelleted by centrifugation at 2000×G for 7 min at 4° C. The supernatant was aspirated and 250 μL of 0.1 N HCl was added to each cell pellet followed by through vortexing for 1 min. Following a 10 min incubation at room temperature, 30 μL of each sample was added to 70 μL of 0.1 N HCl and the cAMP levels were measured using the protocol for the Direct Cyclic AMP Kit (Assay Designs, Inc. #901-066). This 30 μL plus 70 μL of 0.1 N HCl makes up the sample described in step 5 of the Assay Designs' protocol. The samples should lie in the linear range of the assay.

[4] = tested on: P. aeruginosa CyaB (a Class III adenylyl cyclase); assay: Pseudomonas adenylyl cyclase assay with purified His-CyaB; assay type: biochemical, Pseudomonas aeruginosa; settings: increasing concentrations of compound, FIG. 1 / FIG. 2
Description: (§2) FIG. 1. […] The CyaB was heterologously expressed in E. coli as a poly-histidine tagged fusion protein and purified using a nickel column. Adenylyl cyclase activity was determined by measuring cyclic AMP levels using the Correlate-EIA Direct Cyclic AMP assay kit from Assay Designs as per manufacturers instructions.
as §2, with “2.” for “1.”
P. aeruginosa CyaB (a Class III adenylyl cyclase) was heterologously expressed in E. coli as a HIS-tagged, fusion protein. Expression of the fusion protein was induced by Isopropyl β-D-1-thiogalactopyranoside (IPTG) t at 21° C. (empirically found to be best temperature for expression). The His-CyaB fusion protein was purified using a nickel affinity column according to standard protocols in the absence of any reducing agent. Eluted protein was dialyzed into storage buffer consisting of: 50 mM Tris (pH 8.5), 10 mM NaCl, 2 mM MgCl2, and 25% glycerol.
The purified CyaB was assayed for cyclase activity as follows. […]
as §1

[5] = BASAL human sAC in vitro activity, read-out: % Inhibition (100 μM), hsACt-Basal
[6] = stimulated human sAC in vitro activity, read-out: % Inhibition (100 μM), hsACt-Stim.
[7] = BASAL activity of human sAC in vitro (just Mg-ATP, no calcium or bicarbonate), read-out: hsACt-Basal approximate IC50 (or the dose range where the IC50 should lie)
[8] = stimulated activity of human sAC in vitro (calcium and bicarbonate stimulated), read-out: hsACt-Stim. approximate IC50 (or the dose range where the IC50 should lie)

Compound	inhibition at 100 µM (human sAC [1]; [5]) [%]	inhibition at 100 µM (human sAC [1]; [6]) [%]	IC50 (human sAC [1]; [7]) [µM]	IC50 (human sAC [1]; [8]) [µM]	IC50 (human sAC [2]) [µM]	IC50 [3] [µM]	cellular toxicity remark, 4-4 Basal (human sAC [2]; 4-4 cells)	cellular toxicity remark, 293T + FSK ([3]; 293T cells + FSK)	effect on CyaB adenylyl cyclase activity [4]
O=C(CSc1nc2ccccc2[nH]1)NCCc1ccccc1 [KH7.102]	0	0	> 100	> 100	100	> 500			
COc1ccc(/C(C)=N\NC(=O)CSc2nc3ccccc3[nH]2)cc1 [KH7.106]						> 500			
C/C(=N\NC(=O)CSc1nc2ccccc2[nH]1)c1ccc(Br)cc1 [KH7.107]	95	95	10 to 100	10 to 100	60 to 120	> 120			
C/C(=N\NC(=O)CSc1nc2ccccc2[nH]1)c1ccco1 [KH7.109]	0	0	> 100	> 100	~120	> 120			
C/C(=N\NC(=O)CSc1nc2ccccc2[nH]1)c1ccc(Cl)cc1 [KH7.110]	90	90	10 to 100	10 to 100	30 to 60	> 120			
COc1cc(/C(C)=N\NC(=O)CSc2nc3ccccc3[nH]2)ccc1O [KH7.114]	0	0	> 100	> 100	56 to 167	> 500			
C/C(=N/NC(=O)CSc1nc2ccccc2[nH]1)c1ccncc1 [KH7.117]	0	0	> 100	> 100	167 to 500	> 500			
COc1ccc(C2=NN(C(=O)CSc3nc4ccccc4[nH]3)C(c3ccc(F)cc3)C2)cc1 (centres unmarked) [KH7.120]	90	90	10 to 100	10 to 100					activator; also recorded: increase in the activity

Further lines, with some results ahead:

inhibition at 100 µM (human sAC [1]; [5]) [%]	inhibition at 100 µM (human sAC [1]; [6]) [%]	IC50 (human sAC [1]; [7]) [µM]	IC50 (human sAC [1]; [8]) [µM]	IC50 (human sAC [2]) [µM]	IC50 [3] [µM]	Compound	cellular toxicity remark, 4-4 Basal (human sAC [2]; 4-4 cells)	cellular toxicity remark, 293T + FSK ([3]; 293T cells + FSK)	effect on CyaB adenylyl cyclase activity [4]
50	50	10 to 100	10 to 100	30	> 120	CC(Sc1nc2ccccc2[nH]1)C(=O)N/N=C/c1ccc([N+](=O)[O-])cc1 (centres unmarked) [KH7.101]			
100	100	10 to 100	10 to 100	60 to 120	> 120	O=C(CSc1nc2ccccc2[nH]1)N/N=C/c1cc(Br)ccc1O [KH7.103]			
70	85	10 to 100	10 to 100	15	60 to 120	O=C(CSc1nc2ccccc2[nH]1)N/N=C/c1cccc(Br)c1 [KH7.104]			
90	90	10 to 100	10 to 100	15	60	O=C(CSc1nc2ccccc2[nH]1)N/N=C/c1ccc(Cl)cc1Cl [KH7.105]			
0	0	> 100	> 100	30 to 60	60 to 120	C/C(=N\NC(=O)CSc1nc2ccccc2[nH]1)c1ccccc1 [KH7.108]	may be cellular toxicity	may be cellular toxicity	
70	70	10 to 100	10 to 100	3 to 30	120	CCCOc1ccc(/C=N/NC(=O)CSc2nc3ccccc3[nH]2)cc1 [KH7.111]			
